Assay results: patent US20240277658A1, “NLRP3 ACTIVATORS FOR USE IN THE TREATMENT OF INFECTIOUS DISEASES OR CANCER BY ACTIVATING NLRP3 INFLAMMASOME” (ALBERT-LUDWIGS-UNIVERSITÄT FREIBURG, priority 2020, published 2024)
Several values for one entry are separate records, joined by “and”; a condition that tells them apart may be missing. Equal entries are not always repeated. Where two headings read alike, the source gives them in different places.

Key:
BMDCs = assay: LDH release (lytic cell death, pyroptosis) from LPS-primed BMDCs; assay type: cell-based, mouse; conditions: for Average (% positive control): LDH release; for cytotoxicity at 50 µM / cytotoxicity at 25 µM / cytotoxicity at 100 µM: Mus musculus, BMDC
Method in brief: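 Mouse BMDCs (7-9 days differentiated, GM-CSF) primed with 50 ng ml^−1 E. coli K12 LPS for 3 hours, then exposed 3 hours to compounds (50 μM unless indicated) or activators (nigericin 5 μM; R837, CL097 100 μM). Lytic death measured as LDH release by colorimetric assay, triplicate wells.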

NLRP3 inflammasome = biological target: T1, NLRP3 inflammasome (Mus musculus, UniProt Q8R4B8); assay: IL-1β release from LPS-primed BMDCs (ELISA) as readout of NLRP3 inflammasome activation; assay type: cell-based
T1 construct: endogenous in cells; host or cells: primary mouse bone marrow-derived dendritic cells (BMDCs), LPS-primed
T1 sequence (Q8R4B8 whole entry): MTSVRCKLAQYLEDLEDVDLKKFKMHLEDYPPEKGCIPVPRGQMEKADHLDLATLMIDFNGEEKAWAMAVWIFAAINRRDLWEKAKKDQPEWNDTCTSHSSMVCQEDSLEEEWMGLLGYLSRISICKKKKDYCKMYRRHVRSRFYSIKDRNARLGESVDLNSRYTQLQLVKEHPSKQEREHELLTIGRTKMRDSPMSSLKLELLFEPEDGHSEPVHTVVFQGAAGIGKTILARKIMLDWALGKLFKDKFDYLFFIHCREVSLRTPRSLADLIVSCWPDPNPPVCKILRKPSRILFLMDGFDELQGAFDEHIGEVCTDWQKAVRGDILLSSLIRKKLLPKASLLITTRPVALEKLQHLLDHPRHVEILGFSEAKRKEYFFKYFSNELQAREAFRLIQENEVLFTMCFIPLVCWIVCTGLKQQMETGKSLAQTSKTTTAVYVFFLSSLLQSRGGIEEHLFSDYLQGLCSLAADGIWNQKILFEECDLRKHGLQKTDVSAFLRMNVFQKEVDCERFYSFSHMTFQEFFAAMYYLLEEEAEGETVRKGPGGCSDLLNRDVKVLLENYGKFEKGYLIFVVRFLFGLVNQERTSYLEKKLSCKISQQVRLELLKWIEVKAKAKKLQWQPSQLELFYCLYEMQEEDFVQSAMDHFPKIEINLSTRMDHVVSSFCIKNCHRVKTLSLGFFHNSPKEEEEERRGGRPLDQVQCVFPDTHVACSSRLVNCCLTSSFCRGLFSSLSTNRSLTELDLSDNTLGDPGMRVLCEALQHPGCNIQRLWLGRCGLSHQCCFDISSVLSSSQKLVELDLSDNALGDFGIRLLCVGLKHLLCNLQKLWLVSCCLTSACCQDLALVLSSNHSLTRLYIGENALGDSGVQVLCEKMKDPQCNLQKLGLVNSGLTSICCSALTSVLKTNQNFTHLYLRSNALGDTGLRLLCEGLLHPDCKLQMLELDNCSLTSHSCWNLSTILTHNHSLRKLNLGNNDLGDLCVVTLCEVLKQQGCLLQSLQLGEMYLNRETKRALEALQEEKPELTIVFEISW
Method in brief: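 NLRP3 inflammasome activation was read out as IL-1β released into the supernatant, measured by ELISA. Murine BMDCs were primed with LPS (50 ng ml^−1, 3 hours), then incubated with compounds for 3 hours, with each condition run in three technical replicates. Nigericin at 5 μM acted as the positive control activator, and IL-1β release was also expressed as a percentage of that control.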

[1] = compound 50 μM, positive control nigericin 5 μM
[2] = compound 50 μM, LPS-primed BMDCs, read-out: Average LDH release (% of max.)
[3] = single replicates, compound 50 μM, LPS-primed BMDCs, read-out: LDH release (% of max.)
[4] = IL-1β release, compound 50 μM, positive control nigericin 5 μM
[5] = compound 50 μM, LPS-primed BMDCs
[6] = single replicates, compound 50 μM, LPS-primed BMDCs

SMILES	Average (% positive control) (BMDCs; [1])	cytotoxicity at 50 µM (BMDCs; [2])	cytotoxicity at 50 µM (BMDCs; [3])	Average (% positive control) (NLRP3 inflammasome; [4])	Average IL-1β (NLRP3 inflammasome; [5])	IL-1β (NLRP3 inflammasome; [6])	further results
O=C(Nc1ccccc1)Nc1cccc(Br)c1 [L01.020, 3-(3-bromophenyl)-1-phenylurea]	14.712 % positive control	10.8%	11.6%	3.256 % positive control	0.233 ng/mL	0.236 ng/mL and 0.231 ng/mL and 0.233 ng/mL	–
CC(C)=CC(=O)Nc1cccc(NC(=O)Nc2ccccc2)c1 [L01.003, 3-methyl-N-{3-[(phen-ylcarbamoyl)amino]-phenyl}but-2-enamide]	10.676 % positive control	7.81%	6.28%	2.301 % positive control	0.165 ng/mL	0.167 ng/mL and 0.153 ng/mL and 0.175 ng/mL	–
O=C(NCCc1ccccc1)Nc1ccc2ncccc2c1 [EN11-07, 1-(2-phenylethyl)-3-(quinolin-6-yl)urea]	–	–	–	–	–	–	Average (% positive control) (BMDCs; 25 μM, positive control EN22 25 μM): 27.283 % positive control; Average (% positive control) (BMDCs; 50 μM, positive control EN22 25 μM): 28.451 % positive control; Average (% positive control) (BMDCs; 100 μM, positive control EN22 25 μM): 26.529 % positive control; cytotoxicity at 25 µM (BMDCs; 25 μM, EN11 series table, read-out: Average LDH release (% of max.)): 13.9%; cytotoxicity at 25 µM (BMDCs; 25 μM, individual replicate values, EN11 series table, read-out: LDH release (% of max.)): 13.4%; cytotoxicity at 50 µM (BMDCs; 50 μM, EN11 series table, read-out: Average LDH release (% of max.)): 14.5%; cytotoxicity at 50 µM (BMDCs; 50 μM, individual replicate values, EN11 series table, read-out: LDH release (% of max.)): 14.4%; cytotoxicity at 100 µM (BMDCs; 100 μM, individual replicate values, read-out: LDH release (% of max.)): 11.4%; cytotoxicity at 100 µM (BMDCs; 100 μM, read-out: Average LDH release (% of max.)): 13.5%; Average IL-1β (NLRP3 inflammasome; 25 μM, EN11 series table): 0.000 ng/mL; IL-1β (NLRP3 inflammasome; 25 μM, individual replicate values, EN11 series table): 0.000 ng/mL; Average IL-1β (NLRP3 inflammasome; 50 μM, EN11 series table): 0.000 ng/mL; IL-1β (NLRP3 inflammasome; 50 μM, individual replicate values, EN11 series table): 0.000 ng/mL; Average IL-1β (NLRP3 inflammasome; 100 μM): 0.053 ng/mL; IL-1β (NLRP3 inflammasome; 100 μM, individual replicate values): 0.059 ng/mL and 0.052 ng/mL and 0.049 ng/mL; Average (% positive control) (NLRP3 inflammasome; IL-1β, 25 μM, positive control EN22 25 μM): 0.000 % positive control; Average (% positive control) (NLRP3 inflammasome; IL-1β, 50 μM, positive control EN22 25 μM): 0.000 % positive control; Average (% positive control) (NLRP3 inflammasome; IL-1β, 100 μM, positive control EN22 25 μM): 3.621 % positive control
Cc1ccc(NC(=O)Nc2ccccc2)cc1NC(=O)NC(C)C [L01.041, 3-(4-methyl-3-[(propan-2-yl)carbamoylamino}-phenyl)-1-phenylurea]	32.832 % positive control	24%	24.4%	23.826 % positive control	1.708 ng/mL	1.508 ng/mL and 1.847 ng/mL and 1.769 ng/mL	–
CC(C)CC(NC(=O)Nc1cccc(N2CCC(C)CC2)c1)c1nc(-c2nnc[nH]2)no1 (stereo not drawn) [L01.093, 3-{3-methyl-1-[3-(4H-1,2,4-triazol-3-yl)-1,2,4-oxadiazol-5-yl]butyl}-1-[3-(4-methylpiperidin-1-yl)phenyl]urea]	11.139 % positive control	8.15%	6.68%	0.998 % positive control	0.072 ng/mL	0.056 ng/mL and 0.050 ng/mL and 0.108 ng/mL	–
CC(C)c1ccc(NC(=O)Nc2ccccc2)cc1 [L01.047, 1-phenyl-3-[4-(propan-2-yl)phenyl]urea]	16.514 % positive control	12.1%	12.1%	7.117 % positive control	0.510 ng/mL	0.505 ng/mL and 0.513 ng/mL and 0.512 ng/mL	–
O=C(NCc1nc(-c2cccnc2)no1)Nc1ccc([N+](=O)[O-])cc1Cl [L01.042, 1-(2-chloro-4-nitrophen-yl)-3-{[3-(pyridin-3-yl)-1,2,4-oxadiazol-5-yl]-methyl}urea]	9.993 % positive control	7.31%	7.09%	0.826 % positive control	0.059 ng/mL	0.060 ng/mL and 0.069 ng/mL and 0.048 ng/mL	–
O=C(Nc1ccccc1)Nc1ccc(NC(=O)c2ccco2)cc1 [L01.064, N-{4-[(phenylcarbamo-yl)amino]phenyl}furan-2-carboxamide]	11.958 % positive control	8.75%	8.96%	1.014 % positive control	0.073 ng/mL	0.065 ng/mL and 0.054 ng/mL and 0.100 ng/mL	–
